{"source": "patent US9029391B2", "about": "(priority 2011, dated 2015)", "tested_on": "HIV", "assay": "MT4 Assay (anti-HIV activity)", "format": "cell-based", "conditions": "Human immunodeficiency virus 1, 96 h, read-out: HIV MT4 Assay IC50, HTLV-1 transformed cell line MT-4, cell titer glo, 10 point dose response curve", "outline": "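MT-4 cells (HTLV-1 transformed) were used for antiviral activity and cytotoxicity, run in parallel, with luminescence read by CellTiter-Glo 96 hours later. Percent inhibition was expressed against the no-compound control. IC50s came from 10-point curves of 3-4-fold serial dilutions spanning >1000-fold.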"}
{"compound": "Cn1c(C(OC(C)(C)C)C(=O)O)c(-c2ccc3c(c2)CCC3)c2ccccc2c1=O", "note": "(centres unmarked) [Example 152, 2-(tert-butoxy)-2-(4-(2,3-dihydro-1H-inden-5-yl)-2-methyl-1-oxo-1,2-dihydroisoquinolin-3-yl)acetic acid]", "values": [{"measurement": "IC50", "value": 430, "unit": "nM"}]}
{"compound": "Cc1cc(-c2c(C(OC(C)(C)C)C(=O)O)n(C)c(=O)c3ccccc23)cc(C)c1Cl", "note": "(centres unmarked) [Example 66, 2-(tert-butoxy)-2-[4-(4-chloro-3,5-dimethylphenyl)-2-methyl-1-oxo-1,2-dihydroisoquinolin-3-yl]acetic acid]", "values": [{"measurement": "IC50", "value": 3600, "unit": "nM"}]}
{"compound": "Cc1c(-c2c([C@H](OC(C)(C)C)C(=O)O)n(C)c(=O)c3cc(-c4ccc(N(C)C)cc4)ccc23)cc(F)c2c1CCCO2", "note": "(atropisomer, axis not shown; (M)) [Example 199, (2S)(M)-[7-[4-(dimethylamino)phenyl]-4-(8-fluoro-5-methyl-3,4-dihydro-2H-chromen-6-yl)-2-methyl-1-oxo-1,2-dihydro-3-isoquinolinyl][(1,1-dimethylethyl)oxy]ethanoic acid]", "values": [{"measurement": "IC50", "value": 90, "unit": "nM"}]}
{"compound": "Cc1nc(COc2ccc3c(-c4cc(F)c5c(c4C)CCCO5)c(C(OC(C)(C)C)C(=O)O)n(C)c(=O)c3c2)c(C)o1", "note": "(centres unmarked) [Example 133, 2-(tert-butoxy)-2-{7-[(dimethyl-1,3-oxazol-4-yl)methoxy]-4-(8-fluoro-5-methyl-3,4-dihydro-2H-1-benzopyran-6-yl)-2-methyl-1-oxo-1,2-dihydroisoquinolin-3-yl}acetic acid]", "values": [{"measurement": "IC50", "value": 930, "unit": "nM"}]}
{"compound": "Cc1c(-c2c([C@H](OC(C)(C)C)C(=O)O)n(C)c(=O)c3cc(-c4ccoc4)ccc23)cc(F)c2c1CCCO2", "note": "(atropisomer, axis not shown; (M)) [Example 194, (2S)(M)-[(1,1-dimethylethyl)oxy][4-(8-fluoro-5-methyl-3,4-dihydro-2H-chromen-6-yl)-7-(3-furanyl)-2-methyl-1-oxo-1,2-dihydro-3-isoquinolinyl]ethanoic acid]", "values": [{"measurement": "IC50", "value": 40, "unit": "nM"}]}
{"compound": "Cc1ccc(-c2c(C(OC(C)(C)C)C(=O)O)n(C)c(=O)c3ccccc23)c(C)c1", "note": "(centres unmarked) [Example 34, 2-(tert-butoxy)-2-[4-(2,4-dimethylphenyl)-2-methyl-1-oxo-1,2-dihydroisoquinolin-3-yl]acetic acid]", "values": [{"measurement": "IC50", "value": 410, "unit": "nM"}]}
{"compound": "Cc1c(-c2c(C(OC(C)(C)C)C(=O)O)n(C)c(=O)c3cc(OCc4ccc(F)cn4)ccc23)ccc2c1CCCO2", "note": "(centres unmarked) [Example 100, 2-(tert-butoxy)-2-{7-[(5-fluoropyridin-2-yl)methoxy]-2-methyl-4-(5-methyl-3,4-dihydro-2H-1-benzopyran-6-yl)-1-oxo-1,2-dihydroisoquinolin-3-yl}acetic acid]", "values": [{"measurement": "IC50", "value": 270, "unit": "nM"}]}
{"compound": "CC(C)(C)OC(C(=O)O)c1c(-c2ccc3c(c2)CCCO3)c2ccccc2c(=O)n1C1CC1", "note": "(centres unmarked) [Example 30, 2-(tert-butoxy)-2-[2-cyclopropyl-4-(3,4-dihydro-2H-1-benzopyran-6-yl)-1-oxo-1,2-dihydroisoquinolin-3-yl]acetic acid]", "values": [{"measurement": "IC50", "value": 38300, "unit": "nM"}]}
{"compound": "Cc1ccc(-c2c(C(OC(C)(C)C)C(=O)O)n(C)c(=O)c3cc(F)ccc23)cc1C", "note": "(centres unmarked) [Example 87, 2-(tert-butoxy)-2-[4-(3,4-dimethylphenyl)-7-fluoro-2-methyl-1-oxo-1,2-dihydroisoquinolin-3-yl]acetic acid]", "values": [{"measurement": "IC50", "value": 740, "unit": "nM"}]}
{"compound": "Cc1ccc2c(=O)n(C)c(C(OC(C)(C)C)C(=O)O)c(-c3ccc(C)c(C)c3)c2c1", "note": "(centres unmarked) [Example 55, 2-(tert-butoxy)-2-[4-(3,4-dimethylphenyl)-2,6-dimethyl-1-oxo-1,2-dihydroisoquinolin-3-yl]acetic acid]", "values": [{"measurement": "IC50", "value": 2560, "unit": "nM"}]}
{"compound": "Cc1c(-c2c(C(OC(C)(C)C)C(=O)O)n(C)c(=O)c3cc(OCc4ccc(Cl)cc4)ccc23)ccc2c1CCCO2", "note": "(centres unmarked) [Example 136, 2-(tert-butoxy)-2-{7-[(4-chlorophenyl)methoxy]-2-methyl-4-(5-methyl-3,4-dihydro-2H-1-benzopyran-6-yl)-1-oxo-1,2-dihydroisoquinolin-3-yl}acetic acid]", "values": [{"measurement": "IC50", "value": 100, "unit": "nM"}]}
